# Read-outs that look alike come from different tables or passages of the source.
# Columns and labels:
# [1] = target: bovine serum albumin (BSA) (Bos taurus, UniProt P02769); assay: BSA tryptophan fluorescence quenching; settings: for BSA binding constant Κ(BSA): Scatchard equation, BSA 3 μM; for relative BSA fluorescence emission intensity (I/Io, %) remaining: λem,max = 345 nm, lowest value reached, % of the initial BSA fluorescence
# [2] = Solubility of the complexes; assay type: physicochemical
# [3] = test system: CT DNA; assay: CT DNA binding by UV-vis spectroscopy titration; set-up: species or system calf; settings: for ΔA/A0 (%) hyper-/hypo-chromism of UV band / Δλ (nm) shift of λmax: on addition of CT DNA
# [4] = ABTS radical scavenging assay; settings: compound 0.1 mM in DMSO; absorbance at 734 nm 1 min after mixing
# [5] = test system: EB–DNA adduct (CT DNA); assay: EB displacement from EB–DNA adduct by fluorescence emission spectroscopy; assay type: binding, calf; settings: for Stern–Volmer constant KSV (EB–DNA) / EB–DNA fluorescence quenching ΔI/Io (%): [EB] = 40 μM, [DNA] = 45 μM; for EB–DNA fluorescence quenching ΔI/Io (%): λexcitation 540 nm; for relative EB–DNA fluorescence intensity (I/Io, %) remaining: λemission = 592 nm, lowest value reached, % of the initial EB–DNA fluorescence; for quenching constant kq of the EB–DNA fluorescence: τo = 23 ns
# [6] = target: human serum albumin (HSA) (Homo sapiens, UniProt P02768); settings: for HSA binding constant Κ(HSA): Scatchard equation, HSA 3 μM; for relative HSA fluorescence emission intensity (I/Io %) remaining: λem,max = 340 nm, lowest value reached, % of the initial HSA fluorescence
# [7] = target: CT DNA; settings: classic intercalator; cited from earlier work
# [8] = first band listed in the cell, + hyperchromism, − hypochromism
# [9] = first band listed in the cell, + red shift, − blue shift
# [10] = second band listed in the cell, <−50 = intense hypochromism
# [11] = second band listed in the cell, elim = elimination
# Sequence of human serum albumin (HSA) (P02768 25-609): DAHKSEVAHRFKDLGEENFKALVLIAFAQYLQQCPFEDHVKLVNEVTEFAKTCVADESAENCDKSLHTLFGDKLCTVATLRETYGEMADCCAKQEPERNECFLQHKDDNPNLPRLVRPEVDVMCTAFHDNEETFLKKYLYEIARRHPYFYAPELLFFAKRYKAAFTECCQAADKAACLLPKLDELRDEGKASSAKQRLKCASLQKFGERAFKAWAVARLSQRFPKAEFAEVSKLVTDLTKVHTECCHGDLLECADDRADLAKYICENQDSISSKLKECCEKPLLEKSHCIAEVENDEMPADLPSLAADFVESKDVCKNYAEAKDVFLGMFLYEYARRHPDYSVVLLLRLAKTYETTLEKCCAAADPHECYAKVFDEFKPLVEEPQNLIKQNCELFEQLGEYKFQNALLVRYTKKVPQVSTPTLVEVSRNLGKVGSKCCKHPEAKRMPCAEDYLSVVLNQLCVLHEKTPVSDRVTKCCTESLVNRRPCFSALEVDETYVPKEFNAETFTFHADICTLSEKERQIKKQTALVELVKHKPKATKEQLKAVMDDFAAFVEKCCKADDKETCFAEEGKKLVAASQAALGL
# Sequence of bovine serum albumin (BSA) (P02769 25-607): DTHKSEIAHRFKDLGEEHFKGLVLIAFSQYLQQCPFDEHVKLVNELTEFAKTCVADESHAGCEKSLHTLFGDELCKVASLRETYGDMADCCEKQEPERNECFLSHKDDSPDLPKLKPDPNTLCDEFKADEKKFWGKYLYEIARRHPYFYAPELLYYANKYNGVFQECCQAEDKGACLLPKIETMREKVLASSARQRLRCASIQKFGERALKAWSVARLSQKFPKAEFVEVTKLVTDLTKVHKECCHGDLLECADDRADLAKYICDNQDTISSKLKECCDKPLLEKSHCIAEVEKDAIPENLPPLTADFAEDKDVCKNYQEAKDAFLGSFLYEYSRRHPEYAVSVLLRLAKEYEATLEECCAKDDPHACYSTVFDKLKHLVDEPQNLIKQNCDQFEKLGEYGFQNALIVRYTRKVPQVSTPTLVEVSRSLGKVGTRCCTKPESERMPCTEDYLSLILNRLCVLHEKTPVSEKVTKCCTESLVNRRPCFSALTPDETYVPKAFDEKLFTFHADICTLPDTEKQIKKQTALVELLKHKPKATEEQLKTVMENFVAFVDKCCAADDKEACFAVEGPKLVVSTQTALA
Compound,BSA binding constant Κ(BSA) [1],"relative BSA fluorescence emission intensity (I/Io, %) remaining [1] [%]",solubility [2],"ΔA/A0 (%) hyper-/hypo-chromism of UV band [3, 8]","Δλ (nm) shift of λmax [3, 9]",% ABTS radical scavenging activity (ABTS%) [4] [%],Stern–Volmer constant KSV (EB–DNA) [5],EB–DNA fluorescence quenching ΔI/Io (%) [5] [%],"relative EB–DNA fluorescence intensity (I/Io, %) remaining [5] [%]",quenching constant kq of the EB–DNA fluorescence [5],HSA binding constant Κ(HSA) [6],relative HSA fluorescence emission intensity (I/Io %) remaining [6] [%],BSA quenching constant kq(BSA) [1],"ΔA/A0 (%) hyper-/hypo-chromism of UV band [3, 10]","DNA binding constant Kb ([3]; Wolfe–Shimer equation, buffer 150 mM NaCl, 15 mM trisodium citrate pH 7.0)","Δλ (nm) shift of λmax [3, 11]",DNA binding constant Kb [7],overall quenching of albumin fluorescence ([6]; % of the fluorescence intensity initially measured for albumin (HSA per Figure 11C)) [%]
"Cc1ccc(Cl)c(Nc2ccccc2C(=O)[O-])c1Cl.Cc1ccc(Cl)c(Nc2ccccc2C(=O)[O-])c1Cl.O.O.[Mn+2].c1ccncc1.c1ccncc1.c1ccncc1.c1ccncc1 [Complex 1, [Μn(meclf–O)2(py)2(H2O)2]∙2py]",9.58 (±0.07) × 10^5 M^–1,11.8,soluble in DMSO and DMF,+10%,−2 nm,39.18 ± 3.27,1.15 (±0.17) × 10^5 M^–1,53.0,47.0,4.99 (±0.15) × 10^12 M^–1s^–1,8.83 (±0.24) × 10^5 M^–1,21.8,,,,,,
"CO.CO.Cc1ccc(Cl)c(Nc2ccccc2C(=O)[O-])c1Cl.Cc1ccc(Cl)c(Nc2ccccc2C(=O)[O-])c1Cl.[Mn+2].c1cnc2c(c1)ccc1cccnc12 [Complex 3, [Μn(meclf–O)2(phen)(MeOH)2]]",2.71 (±0.16) × 10^6 M^–1,8.0,"soluble in DMSO, and DMF",−6%,+2 nm,18.66 ± 0.71,1.18 (±0.32) × 10^6 M^–1,79.6,20.4,5.15 (±0.14) × 10^13 M^–1s^–1,8.73 (±0.06) × 10^5 M^–1,17.0,,,,,,
"CO.CO.Cc1ccc(Cl)c(Nc2ccccc2C(=O)[O-])c1Cl.Cc1ccc(Cl)c(Nc2ccccc2C(=O)[O-])c1Cl.[Mn+2].c1ccc(-c2ccccn2)nc1 [Complex 4, [Mn(meclf–O)2(bipy)(MeOH)2]]",9.61 (±0.06) × 10^5 M^–1,,,+15%,,98.69 ± 0.06,1.54 (±0.31) × 10^5 M^–1,44.8,,6.69 (±0.13) × 10^12 M^–1s^–1,9.38 (±0.29) × 10^5 M^–1,,1.76 (±0.11) × 10^14 M^–1s^–1,+9%,,,,
"Cc1ccc2ccc3ccc(C)nc3c2n1.O=C([O-])c1ccccc1Nc1cccc(C(F)(F)F)c1.O=C([O-])c1ccccc1Nc1cccc(C(F)(F)F)c1.[Mn+2] [Complex 7, [Μn(fluf–O,O’)2(neoc)]]",4.69 (±0.37) × 10^5 M^–1,10.8,soluble in DMSO,−6%,0 nm,29.70 ± 2.86,5.55(±0.12) × 10^5 M^–1,52.1,47.9,2.41 (±0.05) × 10^13 M^–1s^–1,8.33 (±0.04) × 10^5 M^–1,14.4,4.62 (±0.11) × 10^13 M^–1s^–1,,1.10 (±0.02) × 10^6 M^–1,,,
"Cc1c(Cl)cccc1Nc1ccccc1C(=O)[O-].Cc1c(Cl)cccc1Nc1ccccc1C(=O)[O-].Cc1ccc2ccc3ccc(C)nc3c2n1.[Mn+2] [Complex 8, [Μn(tolf–O,O’)2(neoc)]]",7.23 (±0.23) × 10^5 M^–1,4.4,soluble in DMSO,+5%,+1 nm,99.63 ± 0.07,2.35 (±0.48) × 10^5 M^–1,50.0,50.0,1.02 (±0.03) × 10^13 M^–1s^–1,6.35 (±0.29) × 10^5 M^–1,7.4,1.36 (±0.53) × 10^14 M^–1s^–1,+2%,,+2 nm,,
"CC[n+]1c(-c2ccccc2)c2cc(N)ccc2c2ccc(N)cc21.[Br-] [EB, 3,8–diamino–5–ethyl–6–phenyl–phenanthridinium bromide]",,,,,,,,,,,,,,,,,1.23 (±0.07) × 10^5 M^−1,
"Cc1c(C)c2c(c(C)c1O)CCC(C)(C(=O)O)O2 (stereo not drawn) [Trolox, 6–Hydroxy–2,5,7,8–tetramethylchromane–2–carboxylic acid, reference compound]",,,,,,91.8 ± 0.17,,,,,,,,,,,,
"[Μn(Hdifl–O,O’)(Hdifl–O)(neoc)]·0.5MeOH [Complex 9]",5.67 (±0.27) × 10^5 M^–1,24.8,soluble in DMSO,+6%,0 nm,25.80 ± 1.43,1.01 (±0.42) × 10^6 M^–1,,29.4,4.39 (±0.10) × 10^13 M^–1s^–1,5.44 (±0.24) × 10^5 M^–1,24.9,2.99 (±0.16) × 10^13 M^–1s^–1,,,,,
"[Μn(dicl–O,O’)2(neoc)]∙0.25 H2O [Complex 5]",6.32 (±0.32) × 10^5 M^–1,12.7,soluble in DMSO,+8%,+2 nm,99.20 ± 0.06,7.37 (±0.05) × 10^5 M^–1,69.9,30.1,3.20 (±0.21) × 10^13 M^–1s^–1,3.09 (±0.21) × 10^5 M^–1,0.8,3.46 (±0.16) × 10^13 M^–1s^–1,+7%,,−4 nm,,
[Μn(mef–O)2(py)2(H2O)(MeOH)]∙1.5py [Complex 2],1.03 (±0.16) × 10^6 M^–1,9.7,soluble in DMSO and DMF,+7%,0 nm,92.56 ± 0.74,2.30 (±0.53) × 10^5 M^–1,,47.4,1.00 (±0.155) × 10^13 M^–1s^–1,1.92 (±0.10) × 10^6 M^–1,0.3,,< −50%,,elim,,99.7

# Source: article PMC11676910, “Manganese(II) Complexes with Non-Steroidal Anti-Inflammatory Drugs: Structure and Biological Activity” (International Journal of Molecular Sciences, 2024)
